Experimental data from ChEMBL document CHEMBL5209565, “pH biosensor based assay for SLC16A3 using HEK-293 SLC16A3 OE cells” (2022).

Molecular target: T1, Monocarboxylate transporter 4 (Homo sapiens) (UniProt O15427)
T1 sequence (whole entry): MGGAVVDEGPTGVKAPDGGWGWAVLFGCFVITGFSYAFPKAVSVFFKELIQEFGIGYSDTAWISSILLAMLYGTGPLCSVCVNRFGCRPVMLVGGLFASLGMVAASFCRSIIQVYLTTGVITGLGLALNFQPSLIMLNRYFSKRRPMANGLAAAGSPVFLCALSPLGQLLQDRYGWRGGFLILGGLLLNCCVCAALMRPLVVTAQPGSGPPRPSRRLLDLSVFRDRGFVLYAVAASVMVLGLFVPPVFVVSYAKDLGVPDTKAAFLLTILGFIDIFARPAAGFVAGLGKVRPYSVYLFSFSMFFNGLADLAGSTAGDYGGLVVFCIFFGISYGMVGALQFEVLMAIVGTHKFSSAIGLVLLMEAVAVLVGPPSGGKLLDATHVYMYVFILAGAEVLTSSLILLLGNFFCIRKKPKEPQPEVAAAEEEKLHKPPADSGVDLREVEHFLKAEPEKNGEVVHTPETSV
Test: Substrate uptake by the monocarboxylate transporter 4 (MCT4, SLC16A3) as assessed by a sensor pH-sensitive genetically encoded fluorescent sensor (pHAxensor) in HEK-293 JumpIN-SLC16A3 cells (PubChem AID: 1794833)
Format: functional, cell-based
Conditions: HEK293

Q: For `CC(O)C(=O)O` (stereo unspecified), which proof of principle is on record?
A: The proof of principle was “Substrate. In Comparison To Wild-Type And Not Induced Cells, Cells With Induced Slc16A3 Expression Showed A Specific Transporter Activity, Upon Substrate Addition, Detected As Decrease Of Intracellular Ph, Recorded As Quenching Of The Sensor Fluorescence Signal”.
